System: Aonidiella aurantii
Assay: Insecticidal efficacy of emulsions sprayed on citrus groves (oranges)
Conditions: concentration 0.151/hl
Procedure: Samples of products to be tested on citrus groves (oranges) are prepared. The reference R corresponds to an untreated citrus plot.
Emulsions according to the invention are used, obtained from X6, at 3% in a mixture of hydrocarbons as described in Example 1 for forming the concentrate. This concentrate is mixed at concentrations of 1 and 2% in water, then emulsified. The citrus groves are sprayed at a rate of 1200 L/ha. The efficacy of these emulsions is compared to that of an emulsion of the prior art T1, as described hereinafter and to a chemical reference product corresponding to the use of a synthetic pesticide, here Chlorpyrifos, reference T2.
For the emulsion T1, the concentrate is prepared using 1.4% ethoxylated C12-C14 alcohol and 1.6% ethoxylated C13 alcohol acid phosphate in the same mixture of hydrocarbons. As previously, this concentrate is mixed at concentrations of 1 and 2% in water then emulsified. The resulting emulsions are applied in an identical manner onto citrus.
The efficacy of these emulsions in preventing harmful insect activity is then evaluated, by comparison with the reference products and the prior art. To this end, a count is undertaken of the number of insects present at the time of application of the emulsions on the reference, and the number of insects having withstood the treatment after 20 days. The efficacy is measured according to the Abbott formula based on the number of live insects, the number of dead insects and the % of citrus infected (more than 3 insects per fruit).

## CCOP(=S)(OCC)Oc1nc(Cl)c(Cl)cc1Cl [Concentrate T2, Chlorpyrifos]
Abbott formula, t + 20 days
  % Efficacy (Based on mortality): 83.3%
  % Efficacy (Based on the number of live individuals): 89.9%
T + 20 days, citrus
  % mortality: 88.0%
  Number of dead individuals: 172.0
  Number of live individuals: 23.5
T + 20 days, infected = more than 3 insects per fruit
  % fruits infected: 7.8%
T = 0 (at application), citrus
  Number of live individuals: 216.5

Source: patent publication US9596859B2, “Emulsifiable concentrate for a phytosanitary composition, phytosanitary composition and phytosanitary film” (Total Marketing Services, priority 2009, dated 2017)
